The structures appear in SMILES notation.

Data on ten compounds can be found in patent publication US20070293553A1, “Diphenylurea Derivatives Useful As Potassium Channel Activators” (priority 2004, published 2007).

The test system of the first data set is cough reflex in conscious guinea-pigs. Briefly: Citric acid-induced cough in conscious guinea-pigs. Format: in vivo, guinea-pig. The conditions noted are these: prior exposure to aerosolized test compound (300 μM in nebulizer solution), 10 minutes citric acid aerosol, FIG. 1. On the procedure:
Exposure of animals for 10 minutes with citric acid aerosol elicited a reproducible cough response.
The cough model is based on guinea-pigs that have been pre-screened to assess their cough response to a 10 minutes exposure of aerosolised 0.35 M citric acid. […] The guinea-pigs are then ranked with regard to their tussive response to citric acid and divided into groups so that the mean number of coughs per group is similar in the vehicle and drug treated groups.
Cough is detected both by pressure change and by sound and recorded using a chart recorder. All animals received Terbutaline (0.05 mg/kg i.p.) 10 minutes prior to challenge with citric acid to alleviate any bronchoconstriction that may occur. These animals were allowed to recover for 1 week. Following this rest period the study was initiated and animals received aerosolised vehicle (1% DMSO) or test compound at 300 μM in 1% DMSO in saline for 20 minutes prior to exposure to citric acid. After dosing, the animals were monitored and exposed to 0.35 M citric acid for 10 minutes, and the number of coughs recorded.
Initially N-(3,5-Dichlorophenyl)-N′-[3-(1H-tetrazol-5-yl)-3′-trifluoromethyl-bi-phenyl-4-yl]-urea (Compound A (3-39)) and N-(3,5-Dichlorophenyl)-N′-[4-bromo-2-(1H-tetrazol-5-yl)phenyl]urea (Compound B) were subjected to this determination, and the results of these determinations are presented in FIG. 1.
As to `O=C(Nc1cc(Cl)cc(Cl)c1)Nc1ccc(-c2cccc(C(F)(F)F)c2)cc1-c1nnn[nH]1` [Compound 3-39, N-(3,5-Dichloro-phenyl)-N′-[3-(1H-tetrazol-5-yl)-3′-trifluoromethyl-biphenyl-4-yl]-urea], the “cough response to citric acid” value is recorded as “greatly reduced”.
The same measure, in the same setting: for `O=C(Nc1cc(Cl)cc(Cl)c1)Nc1ccc(Br)cc1-c1nnn[nH]1` [Compound B, N-(3,5-Dichlorophenyl)-N′-[4-bromo-2-(1H-tetrazol-5-yl)phenyl]urea] the value was “greatly reduced”.

Tested on in the next data set: not given
Assay: not given
Settings: not given
In the case of `O=C(Nc1cc(C(F)(F)F)cc(C(F)(F)F)c1)Nc1ccc(-c2ccc(OC(F)(F)F)cc2)cc1-c1nnn[nH]1` [Compound 3-37, N-(3,5-Bis-trifluoromethyl-phenyl)-N′-[3-(1H-tetrazol-5-yl)-4′-trifluoromethoxy-biphenyl-4-yl]-urea], the melting point was 238 to 240 °C.
Turning to `O=C(Nc1cc(F)cc(F)c1)Nc1ccc(-c2cccc(C(F)(F)F)c2)cc1-c1nnn[nH]1` [Compound 3-38, N-(3,5-Difluoro-phenyl)-N′-[3-(1H-tetrazol-5-yl)-3′-trifluoromethyl-biphenyl-4-yl]-urea], the melting point was in the range of 255 to 257 °C.
In turn, `O=C(Nc1cc(Cl)cc(Cl)c1)Nc1ccc(-c2cccc(C(F)(F)F)c2)cc1-c1nnn[nH]1` [Compound 3-39, N-(3,5-Dichloro-phenyl)-N′-[3-(1H-tetrazol-5-yl)-3′-trifluoromethyl-biphenyl-4-yl]-urea] returned a melting point of 236 to 239 °C.
The compound `O=C(Nc1cc(C(F)(F)F)cc(C(F)(F)F)c1)Nc1ccc(-c2cccc(C(F)(F)F)c2)cc1-c1nnn[nH]1` [Compound 3-40, N-(3,5-Bis-trifluoromethyl-phenyl)-N′-[3-(1H-tetrazol-5-yl)-3′-trifluoromethyl-biphenyl-4-yl]-urea] came in with a melting point of 250 to 252 °C.
Still for that read-out and setting: the figure for `COc1ccc(-c2ccc(NC(=O)Nc3cc(F)cc(F)c3)c(-c3nnn[nH]3)c2)cc1` [Compound 3-41, N-(3,5-Difluoro-phenyl)-N′-[4′-methoxy-3-(1H-tetrazol-5-yl)-biphenyl-4-yl]-urea] is 129 to 133 °C; for `COc1ccc(-c2ccc(NC(=O)Nc3cc(C(F)(F)F)cc(C(F)(F)F)c3)c(-c3nnn[nH]3)c2)cc1` [Compound 3-42, N-(3,5-Bis-trifluoromethyl-phenyl)-N′-[4′-methoxy-3-(1H-tetrazol-5-yl)-biphenyl-4-yl]-urea] it is 219 to 221 °C; for `O=C(Nc1cccc(Br)c1)Nc1ccc(-c2ccc(C(F)(F)F)cc2)cc1-c1nnn[nH]1` [Compound 3-43, N-(3-Bromo-phenyl)-N′-[3-(1H-tetrazol-5-yl)-4′-trifluoromethyl-biphenyl-4-yl]-urea] it is 203 to 210 °C.
The compound `O=C(Nc1ccc(Cl)cc1)Nc1ccc(-c2ccc(C(F)(F)F)cc2)cc1-c1nnn[nH]1` [Compound 3-44, N-(4-Chloro-phenyl)-N′-[3-(1H-tetrazol-5-yl)-4′-trifluoromethyl-biphenyl-4-yl]-urea] had a melting point of 232 to 234 °C.
On to `O=C(Nc1ccc(F)c(C(F)(F)F)c1)Nc1ccc(-c2cccc(C(F)(F)F)c2)cc1-c1nnn[nH]1` [Compound 3-45, N-(4-Fluoro-3-trifluoromethyl-phenyl)-N′-[3-(1H-tetrazol-5-yl)-3′-trifluoromethyl-biphenyl-4-yl]-urea], for which the melting point was in the range of 254 to 255 °C.
